Measured values taken from US5382582A, “Methotrexate analogs and methods of using same” (priority 1993, dated 1995).

Columns and labels:
[1] = tested on: human leukemia cell line CCRF/CEM; assay: Growth inhibition of lymphoblastic leukemia cells (cell counts, 120 h continuous exposure); type: cell-based
Experimental: (§1) Two suspensious human leukemia cell lines were employed in this study. The myelogenous leukemia cell line K562 was cultured in RPMI 1640 (JRH Biosciences) containing 10% filtered fetal bovine serum (FBS; Irvine Scientific), and the lymphoblastic leukemia cell line CCRF/CEM was cultured in RPMI 1640 containing 20% FBS, 100 U/ml penicillin (GIBCO Laboratories, Grand Island, NY), and 100 μg/ml streptomycin (GIBCO). Cells were maintained at 37° C. with 5% CO2 in air, and were cultured using standard sterile tissue culture technique.
(§2) Prior to toxicity studies, cells were maintained 48 hours in the absence of added inhibitor. Logarithmically growing cells were inoculated at 1×10^4 cells/ml in tissue culture grade petri dishes (35×10 mm), and, following a suitable recovery period, were treated with chemical agents. Inhibitor concentrations ranging from 10^-12 to 10^-4 M were added to the cultures except for a control culture, which contained no added drug. Cell counts were performed by hematometer counting during 120 hours of continuous exposure to the drugs. The IC50 value was obtained by interpolation from graphs of percent growth inhibition plotted against drug concentration.

[2] = Formation of 7-OH-MTX (7-hydroxylation) in rabbit liver homogenate; conditions: as compared with MTX
Experimental: (§3) For these experiments, freshly isolated liver from a New Zealand white rabbit was homogenized in 400 ml of cold buffer of pH 7.6 consisting of 10 mM Tris-HCl, 25 mM sucrose and 10 mMMgCl2. The homogenate was centrifuged at 1000× g for 20 minutes at 4° C. and the resulting pellet was resuspended in about 14 ml of the same buffer. […] Two ml samples of the homogenate were removed at 10 minute intervals. Samples were boiled 5 minutes to denature proteins, and then centrifuged to pellet cell debris. […] For HPLC analysis, a Perkin-Elmer 410 LC solvent delivery system and a 5-μm IBM ODS column (4.1×250 mm) with a C18 Guard column were employed. The mobile phase consisted of 0.1 M monobasic sodium phosphate and 0.1 M Tris-HCl in 27% methanol at a final pH of 7.6. […] Detector output was recorded and integrated by a Perkin-Elmer LCI 100 integrator.

[3] = tested on: human leukemia cell line K562; assay: Growth inhibition of myelogenous leukemia cells (cell counts, 120 h continuous exposure); type: cell-based; conditions: for IC50: Homo sapiens, K562 Cells, 120 hours continuous exposure
Experimental: as §1, §2

[4] = Half-life in rabbit liver homogenate
Experimental: as §3, with “employed.” for “employed. The mobile phase consisted of 0.1 M monobasic sodium phosphate and 0.1 M Tris-HCl in 27% methanol at a final pH of 7.6.”

[5] = In vivo pharmacokinetics: 7-OH-MTX formed from drug in rabbit plasma; set-up: species or system New Zealand White rabbit; conditions: i.v., as compared with MTX
Experimental: A male New Zealand White rabbit was cannulated through the middle ear artery. A single bolus 16.7 mg/kg dose of drug was administered into the ear vein, and 1.0 ml blood samples were withdrawn from the cannulated artery into heparinized tubes at 0, 5, 15, 30, 45, 60, 75 and 90 minutes following drug administration. Plasma was separated from the samples by centrifugation at 1000 rpm, and was kept frozen until analysis.
HPLC analysis was performed as in Example 5, with the exception that the mobile phase was 0.1 M monobasic sodium phosphate and 0.1 M Tris-HCl in 20% methanol at a final pH of 6.7. p-Aminoacetophenone (10 μg/ml in water) was used as an internal standard.
Pharmacokinetic parameters were determined by the method of residual, a standard pharmacokinetic technique for resolving a curve into its various exponential components.
Thus tmax was calculated according to the formula:
tmax =2.3 log (ka /kc)/[…]

[6] = high dose regimen; Barak et al. (1984); cited from earlier work
[7] = man and monkeys; Borsi et al. (1990), Jacobs et al. (1976); cited from earlier work
[8] = Tomcuf, J. Organic Chem., 26, 3351 (1961); cited from earlier work
[9] = Rosowsky and Chen, J. Med. Chem., 18, 1308-11 (1974); cited from earlier work

For `[2H]c1nc2nc(N)nc(N)c2nc1CN(C)c1ccc(C(=O)N[C@@H](CCC(=O)O)C(=O)O)cc1` [7-d-MTX, N-{p-[N-(2,4-diamino-7-deutero-6-pterridinylmethyl)-N-methylamino]benzoyl}-L -glutamic acid], the IC50 [1] was 9.5 nM, the “Less 7-OH-MTX formed per unit time than from MTX” value [2] was “about 70%” and the IC50 [3] was 6 nM. The “IC50 lower than IC50 of MTX by” value ([3]; K562 and CCRF/CEM cells, as compared with MTX) was 15-25% and the “Half-life greater than half-life for MTX by” value ([4]; rabbit liver homogenate, as compared with MTX) was “about 60%”.

For `[2H]c1nc2nc(N)nc(N)c2nc1C([2H])([2H])N(C)c1ccc(C(=O)N[C@@H](CCC(=O)O)C(=O)O)cc1` (racemic) [7,9,9-d3 -MTX, N-[p-[N-(2,4-diamino-7-deutero-6-pteridinyldideuteromethyl)-N-methylamino]benzoyl]glutamic acid], the “Peak level of 7-OH-MTX less than that obtained from MTX by” value [5] was “about 70%”, the “Time to achieve 7-OH-MTX peak level as compared to that of MTX” value [5] was “more than twice as long” and the IC50 [1] was 48 nM. The IC50 [3] was 40 nM and the “IC50 compared with IC50 of MTX” value ([3]; K562 and CCRF/CEM cells, D,L-racemate) was “greater than the IC50 values obtained for MTX”.

In the case of `CN(Cc1cnc2nc(N)nc(N)c2n1)c1ccc(C(=O)N[C@@H](CCC(=O)O)C(=O)O)cc1` [MTX, N-[4-[[(2,4-diamino-6pteridinyl)methyl]methylamino]benzoyl]-L-glutamicacid, reference compound], the IC50 [1] is listed as 11.3 nM, the “Toxicity” value [6] is listed as “associated with renal and hepatic toxicity” and the IC50 [3] is listed as 8 nM. For the same compound, the Half-Life ([4]; rabbit, liver homogenate, pH 7.6) was 28.2 min and the “Conversion in vivo to 7-OH-MTX” value [7] was “converted in vivo to 7-hydroxymethotrexate (7-OH-MTX)”.

In the case of `CN(Cc1cnc2nc(N)nc(N)c2n1)c1c(F)cc(C(=O)N[C@@H](CCC(=O)O)C(=O)O)cc1F` [3', 5'-difluoro MTX], the “Biological activity as compared with MTX” value [8] is given as “little or no increase in biological activity as compared with MTX”.

In the case of `Cc1nc2nc(N)nc(N)c2nc1CN(C)c1ccc(C(=O)N[C@@H](CCC(=O)O)C(=O)O)cc1` [7-methyl substituted MTX], the “Antifolate antagonism” value [9] is given as “impaired antifolate antagonism”.

For `CN(Cc1nc2c(N)nc(N)nc2nc1O)c1ccc(C(=O)N[C@@H](CCC(=O)O)C(=O)O)cc1` [7-OH-MTX, 7-hydroxymethotrexate], the “Toxicity” value [6] is listed as “the source of this toxicity”.
